Data as given in the supplement of paper PMC10307832.

Columns and labels:
Experiment in all cases: relative viability (nuclei count vs DMSO), 5 days (fraction); higher = more cells survive
[1] = compound: CCN1C(=O)C2=CC(=C(N=C2N(C1=O)C3CC3)N)C(=O)N + CC(C)C[C@H](NC(=O)[C@H](Cc1ccccc1)NC(=O)c1cnccn1)B(O)O [Bortezomib] (partner 0.002 µM)
Summary of the method: (§1)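 Relative viability was taken as the ratio of nuclei in treated wells to nuclei in vehicle wells. Lung cancer cell lines in 1536-well plates received compounds by pin tool one day after seeding, either one drug alone or a fixed anchor-drug dose plus five library-drug doses (not always all listed) in √10 steps. Nuclei were counted on 4× images after 5 days of treatment, and values are medians of duplicate plates.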

[2] = compound: CCN1C(=O)C2=CC(=C(N=C2N(C1=O)C3CC3)N)C(=O)N + COc1cccc2cc(-c3nc([C@H]4CC[C@H](C(=O)O)CC4)n4ncnc(N)c34)[nH]c12 [OSI-027] (partner 0.5 µM)
Summary of the method: as §1

[3] = compound: CCN1C(=O)C2=CC(=C(N=C2N(C1=O)C3CC3)N)C(=O)N + CC(=O)c1c(C)c2cnc(Nc3ccc(N4CCNCC4)cn3)nc2n(C2CCCC2)c1=O [Palbociclib] (partner 0.5 µM)
Summary of the method: as §1

[4] = compound: CCN1C(=O)C2=CC(=C(N=C2N(C1=O)C3CC3)N)C(=O)N + Cc1cc(Nc2cc(N3CCN(C)CC3)nc(Sc3ccc(NC(=O)C4CC4)cc3)n2)n[nH]1 [Tozasertib] (partner 0.1 µM)
Summary of the method: as §1

[5] = compound: CCN1C(=O)C2=CC(=C(N=C2N(C1=O)C3CC3)N)C(=O)N + Nc1nc2[nH]cc(CCc3ccc(C(=O)N[C@@H](CCC(=O)O)C(=O)O)cc3)c2c(=O)[nH]1 [Pemetrexed] (partner 0.2 µM)
Summary of the method: as §1

Cell Line	relative viability ([1]; first compound 0.253 µM)	relative viability ([1]; first compound 0.8 µM)	relative viability ([1]; first compound 2.53 µM)	relative viability ([1]; first compound 8 µM)	relative viability ([2]; first compound 0.253 µM)	relative viability ([2]; first compound 0.8 µM)	relative viability ([2]; first compound 2.53 µM)	relative viability ([2]; first compound 8 µM)	relative viability ([3]; first compound 0.253 µM)	relative viability ([3]; first compound 0.8 µM)	relative viability ([3]; first compound 2.53 µM)	relative viability ([3]; first compound 8 µM)	relative viability ([4]; first compound 0.253 µM)	relative viability ([4]; first compound 0.8 µM)	relative viability ([4]; first compound 2.53 µM)	relative viability ([4]; first compound 8 µM)	relative viability ([5]; first compound 0.253 µM)	relative viability ([5]; first compound 0.8 µM)	relative viability ([5]; first compound 2.53 µM)	relative viability ([5]; first compound 8 µM)
PC-14	0.966	0.932	0.807	0.919	0.856	0.799	0.831	0.907	0.555	0.525	0.526	0.514	0.597	0.604	0.525	0.64	0.133	0.14	0.141	0.149
NCI-H3122	1.04	1.01	1.02	1.01	0.888	0.948	0.905	0.93	0.183	0.182	0.152	0.209	0.393	0.369	0.376	0.533	0.217	0.198	0.202	0.192
SK-MES-1					0.626	0.564	0.588	0.583	0.362	0.285	0.324	0.282	0.902	0.931	0.85	0.918	0.981	0.911	0.858	0.882
NCI-H1944					0.4	0.399	0.473	0.378	0.421	0.324	0.33	0.365	0.26	0.266	0.247	0.279	0.64	0.589	0.615	0.624
LK-2					0.19	0.196	0.181	0.2	0.705	0.565	0.683	0.974	0.184	0.173	0.149	0.161	0.3	0.286	0.303	0.301
RERF-LC-KJ	1.01	1.03	1.02	1.01	0.6	0.638	0.584	0.632	1.09	1.1	1.09	1.13	0.498	0.499	0.479	0.441	0.473	0.448	0.472	0.481
COR-L23	1	0.944	1.12	0.95	0.883	0.819	0.743	0.867	0.355	0.334	0.322	0.266	0.197	0.183	0.164	0.161	0.188	0.202	0.191	0.213
NCI-H1355	1.22	1.3	1.22	1.25	0.5	0.464	0.455	0.376	0.418	0.358	0.396	0.395	0.587	0.616	0.509	0.515	1.03	1	1.03	0.96
NCI-H460	1.16	1.03	0.983	1.23	0.586	0.599	0.577	0.547	0.22	0.151	0.115	0.192	0.436	0.455	0.33	0.112	0.0628	0.0522	0.0677	0.0646
NCI-H1993	1.05	0.925	0.983	1.11	0.578	0.558	0.523	0.534	0.414	0.561	0.651	0.676	0.6	0.569	0.537	0.512	0.607	0.525	0.607	0.541
ChaGo-K-1	1.12	0.87	1.1	1.1	0.516	0.518	0.683	0.502	0.898	0.97	0.897	0.99	0.218	0.215	0.221	0.2	0.272	0.264	0.263	0.246
HCC-15	0.992	1.11	0.979	1	0.648	0.72	0.685	0.663	0.764	0.731	0.675	0.712	0.46	0.389	0.385	0.502	0.231	0.221	0.2	0.235
NCI-H23	1.02	1.03	1.08	0.956	0.494	0.64	0.587	0.583	0.502	0.604	0.461	0.49	0.415	0.352	0.352	0.335	0.785	0.734	0.677	0.634
NCI-H1395					0.62	0.587	0.697	0.593	0.707	0.694	0.603	0.578	0.697	0.693	0.722	0.65	0.922	0.811	0.979	0.816
NCI-H1666	0.739	0.692	0.848	0.74		0.838	0.863	0.834	0.683	0.654	0.629	0.65		0.608	0.584	0.618	0.844	0.879	0.812	0.799
NCI-H2405	1	1.05	1.01	0.952	0.664	0.667	0.604	0.616	0.523		0.554	0.527	0.823	0.777	0.757	0.732	1.1		1.14	1.03
NCI-H2009	0.963	1.09	0.965	0.94	0.634	0.622	0.619	0.621	0.208	0.184	0.21	0.186	0.732	0.751	0.697	0.809	1.1	1.09	1	0.966
HCC-78	0.293	0.479	0.463	0.516	0.434		0.354	0.387	0.472	0.463	0.509	0.449	0.422		0.289	0.453	0.866	0.949	0.813	0.842
NCI-H2170					0.278	0.707	0.72	0.664	0.385	0.389	0.395	0.363	0.752	0.788	0.692	0.632	0.271	0.289	0.28	0.251

Cell Line	relative viability ([1]; first compound 0.253 µM)	relative viability ([1]; first compound 0.8 µM)	relative viability ([1]; first compound 2.53 µM)	relative viability ([1]; first compound 8 µM)	relative viability ([2]; first compound 0.253 µM)	relative viability ([2]; first compound 0.8 µM)	relative viability ([2]; first compound 2.53 µM)	relative viability ([2]; first compound 8 µM)	relative viability ([3]; first compound 0.253 µM)	relative viability ([3]; first compound 0.8 µM)	relative viability ([3]; first compound 2.53 µM)	relative viability ([3]; first compound 8 µM)	relative viability ([4]; first compound 0.253 µM)	relative viability ([4]; first compound 0.8 µM)	relative viability ([4]; first compound 2.53 µM)	relative viability ([4]; first compound 8 µM)	relative viability ([5]; first compound 0.253 µM)	relative viability ([5]; first compound 0.8 µM)	relative viability ([5]; first compound 2.53 µM)	relative viability ([5]; first compound 8 µM)
NCI-H1793						0.294	0.212	0.239	0.258	0.322	0.27	0.3		0.375	0.265	0.298	0.915	0.925	0.805	0.861
HCC-366	1.03	1	1	0.997		0.938	0.877	0.743	0.334	0.403	0.378	0.417		0.0821	0.0697	0.0668	0.167	0.17	0.155	0.163
NCI-H1651	0.996	0.897	0.964	0.858	0.643	0.691	0.734	0.606	0.471	0.489	0.512	0.501	0.622	0.586	0.631	0.508	0.582	0.608	0.588	0.597
LC-2-ad	0.922	0.965	1.02	1.07	0.693	0.808	0.759	0.829	0.424	0.53	0.483	0.496	0.399	0.507	0.484	0.452	0.288	0.298	0.273	0.278
HCC-827	1.06	1.11	1.06	0.972	0.778	0.771	0.793	0.794	0.475	0.45	0.395	0.517	0.395	0.387	0.457	0.445	0.259	0.268	0.224	0.264
UMC-11	0.714	0.649	0.674	0.836	0.5	0.463	0.506	0.521	0.333	0.336	0.336	0.279	0.2	0.213	0.188	0.206	0.867	0.846	0.761	0.845
ABC-1	0.298	0.325	0.312	0.266	0.438	0.474	0.538	0.469	0.819		0.709	0.799	0.17	0.167	0.178	0.149				
NCI-H1703	0.384	0.383	0.34	0.374																
COR-L 105	0.866	0.709	0.856	0.738	0.873	0.729	0.634	0.651	0.377	0.431	0.397	0.366	0.346	0.355	0.403	0.327	0.941	1.01	0.991	1.16
NCI-H727	0.806	0.843	0.805	0.875	0.59	0.528	0.654	0.723	0.642	0.616	0.605	0.553	0.534	0.71	0.608	0.603				
NCI-H596		0.807	1.11	1.01	0.735	0.7	0.843	0.679					0.968	0.944	0.69	1.1	0.465	0.507	0.573	0.497
NCI-H2342					0.612	0.568	0.704	0.524	0.549	0.533	0.426	0.461	0.512	0.533	0.544	0.54	0.781	0.746	0.802	0.817
SW 900					0.568	0.531	0.475	0.731	0.551	0.558	0.521	0.669	0.553	0.507	0.457	0.446	0.462	0.517	0.52	0.473
NCI-H522					0.715	0.623	0.647	0.722	0.954	0.966	0.794	1.1	0.593	0.478	0.496	0.489	1.1	0.976	0.792	0.926
NCI-H1792	0.983	0.861	1.03	1.06	0.69	0.696	0.733	0.651	0.674	0.631	0.668	0.653					0.733	0.77	0.911	0.909
IA-LM	0.826	0.702	0.807	0.817																
NCI-H358					0.85	0.818	0.779	0.814	0.122	0.134	0.127	0.14	0.0962	0.114	0.0945	0.119	0.172	0.181	0.188	0.164
NCI-H1563	0.919	0.871	0.83	0.681	0.743	0.805	0.759	0.795									0.762	0.799	0.965	0.742
